This data set is described as follows: Peracid (peracetic acid) release rate, iodometric titration. Particulars: for Peracid Release (% th. max): time 5 mins, 20° C., 75 rpm, actual PAR/theoretical PAR. The class given is physicochemical.

Description: The invention is illustrated by determining the rate of peracid release as a proportion of the maximum achievable based on acetyl groups available for reaction with perhydroxyl ion.
In this specification the method used to measure peracid generation is an iodometric titration carried out as follows: 25 g of a mixture of 85% by weight IEC A*base detergent, 10% sodium percarbonate and 5% activator, accurately weighed, is added to it deionised water at 20° C. in a beaker stirred by overhead stirrer at 75 rpm at t=0. After predetermined times from 2 mins, a 50 ml sample of the solution is added to a mixture of 15 ml glacial acetic acid and 5 ml of a 10% solution of potassium iodide at 0° C. and titrated against 0.05M sodium thiosulphate using a suitable indicator for iodine as quickly as possible. The theoretical amount of peracid released (PAR) is calculated as follows:
[formula] for TriAED the moles of peracid released is 1, for TAED it is 2.
The actual amount of peracid released (actual PAR) is calculated from the titre of thiosulphate and its molarity, based on the correlation of 2 moles thiosulphate to 1 mole of peracid. The results reported are of actual PAR/theoretical PAR for each time point.
Testing of peracetic acid release rate is carried out according to the standard test method described above.

`CC(=O)N(CCN(C(C)=O)C(C)=O)C(C)=O` [TAED, Tetra-acetylethylene diamine]: the “Peracid Release (% th. max)” value was found to be 45 % th. max. Moreover, the “peracid release as a proportion of the maximum achievable” value (within two minutes of being added to water at 20° C.) is recorded as “less than 70%”.
As to `CC(=O)NCCN(C(C)=O)C(C)=O` [Tri AED, N,N,N′-triacetylethylene diamine], the “Peracid Release (% th. max)” value turned out to be 92 % th. max.
